Measured values as given in article PMC8838991, “Exploring the Synergistic Anticancer Potential of Benzofuran–Oxadiazoles and Triazoles: Improved Ultrasound- and Microwave-Assisted Synthesis, Molecular Docking, Hemolytic, Thrombolytic and Anticancer Evaluation of Furan-Based Molecules” (Molecules, 2022).
Values joined by “and” are separate entries in the source; they are usually repeats but may differ in a detail not shown here. Identical values can stand only once.

Experiments:
blood clot = experiment: Thrombolysis assay (clot lysis); set-up: species or system human; details: sample solution in DMSO, 3 h at 37 °C, ABTS positive control, triplicate
Protocol: The thrombolytic assay was performedaccording tomethodologyin the literature. A blood sample (3 mL) was collected from a healthy human donor, and 500 µL was transferred to pre-weighed, clean Eppendorf tubes. The tubes containing the blood wereweighed again andincubatedfor 1 h at 37 °C to induce clot formation. The serum was then discarded, and the tube containing theclot was weighed. An amount of 40 µL of sample solution in DMSO was added to the clot.The tubes were again incubated for 3 h at 37 °C, and the lysis resultswere observed. ABTS was used as a positivecontrol, while DMSO was used as a negative control in this assay. The experiment was performed in triplicate, and the lysis percentage was calculated using the formula below: % Age clot lysis =Initial clot weight−Final clot weight ×100/Initial clot weight

[1] = tested on: A549 lung cancer cell line; experiment: MTT assay, cell viability; assay type: cell-based, human; details: A549, 48 h, mean ± SD in triplicate
Protocol: The A549 cell line was treated with synthesized compounds in a final concentration of DMSO (dimethyl sulfoxide) of less than 1%.
The cytotoxic therapeutic potential of synthesized structural hybrids was evaluated usinga standard MTT (3-(4,5-dimethylthiazol-2-yl)-2,5-diphenyltetrazolium bromide) assay. The cells of theA549 cell line were grown, overnight, in a microculture of 96-well plates. […] Following this, 150 μL of control DMSO was added to formazan crystals.The percentage of cell viability was determined viaquantified absorbance in a microplate readerat 490 nm wavelength.

Hemolysis assay = assay type: cell-based; details: human, red blood cells (washed RBC pellet); read-out: Percentage Hemolysis ± SD
Protocol: A fresh blood sample (5 mL) from a healthy donor was collected in an EDTA tube. The blood was transferred to microcentrifuge tubes and centrifugedfor 5 min at 1000 rpm to obtain the red blood cells (RBCs). The supernatant was then discarded, and the RBCpellet was washed three times with phosphate-buffered saline (PBS). The RBC pellet was collected after washing and 20µL of sample solution in DMSO was added. The tubes were incubated at 37 °C for 60 min. Having been removed from the incubator, the tubes were recentrifuged at 13,000 rpm for 5 min. The supernatant was collected and diluted with chilled PBS solution. Absorbance was recordedat 517 nm. […] The experiment wasconducted in triplicate, and the RBC lysis percentage was calculated using this formula [40]: % Age hemolysis =Absorbance of sample−Absorbance of negative control ×100/Absorbance of positive control

| melting point [°C] | IC50 ([1]; Homo sapiens) [µM] | Structure (SMILES) | Percentage Thrombolysis ± SD (blood clot) | IC50 [1] [µM] | hemolysis at 60 min (Hemolysis assay) [%] | Percentage Cell viability A549 (Lung Cancer) ± SD [1] [%] |
| --- | --- | --- | --- | --- | --- | --- |
| – | – | CCn1c(=NN=c2sc3cc(S(=O)(=O)O)ccc3n2CC)sc2cc(S(=O)(=O)O)ccc21 [ABTS, reference compound] | 86% | – | – | – |
| – | – | N.N.[Cl][Pt][Cl] [Cisplatin, cisplatin, reference compound] | – | 3.88 ± 0.76 | – | – |
| 212 to 214 | – | O=C(CSc1nnc(-c2cc3ccccc3o2)o1)Nc1ccccc1 [Compound 5a] | 56.8% and 56.8 ± 0.081% | – | 3.7 ± 0.008 | 64.1 ± 1.72 |
| 181 to 182 | – | O=C(CSc1nnc(-c2cc3ccccc3o2)o1)N1CCOCC1 [Compound 5b] | 50.7% and 50.7 ± 0.081% | – | 22.12 ± 0.008 | 45.99 ± 4.22 |
| 176 to 178 | 6.3 ± 0.7 | COc1ccccc1NC(=O)CSc1nnc(-c2cc3ccccc3o2)o1 [Compound 5d] | 53.5% and 53.5 ± 0.081% | – | 5.02 ± 0.008 | 27.49 ± 1.90 |
| 154 to 156 | 17.9 ± 0.46 | CCOc1ccc(NC(=O)CSc2nnc(-c3cc4ccccc4o3)o2)cc1 [Compound 5e] | 52.4% and 52.4 ± 0.081% | – | 0.5 ± 0.008 | 34.47 ± 2.19 |
| 96 to 97 | – | CCN(CC)C(=O)CSc1nnc(-c2cc3ccccc3o2)o1 [Compound 5g] | 48.3% and 48.3 ± 0.081% | – | 4.86 ± 0.047 | 41.45 ± 4.10 |
| 173 to 175 | – | O=C(CSc1nnc(-c2cc3ccccc3o2)n1-c1ccccc1)N1CCOCC1 [Compound 7b] | 52.5% and 52.5 ± 0.081% | – | 0.1 ± 0.004 | 57.62 ± 4.94 |
| 226 to 227 | – | Cc1ccc(NC(=O)CSc2nnc(-c3cc4ccccc4o3)n2-c2ccccc2)c(C)c1 [Compound 7f] | 61.4% and 61.4 ± 0.081% | – | 15.7 ± 0.081 | 99.1 ± 5.04 |
| 229 to 230 | 19.8 ± 0.54 | O=C(CSc1nnc(-c2cc3ccccc3o2)n1-c1ccccc1)Nc1ccc(Cl)cc1 [Compound 7g] | 49.06% and 49.06 ± 0.047% | – | 23.4 ± 0.081 | 36.26 ± 0.41 |
| 217 to 219 | 10.9 ± 0.94 | O=C(CSc1nnc(-c2cc3ccccc3o2)n1-c1ccccc1)Nc1ccc(Cl)cc1Cl [Compound 7h] | 48.1% and 48.1 ± 0.081% | – | 14.8 ± 0.081 | 29.29 ± 3.98 |
| – | 8.54 ± 0.84 | C[C@@H](Oc1cc(-c2cnn(C3CCNCC3)c2)cnc1N)c1c(Cl)ccc(F)c1Cl [Crizotinib, crizotinib, reference compound] | – | – | – | – |
